Read-outs that look alike come from different tables or passages of the source.
Tests used:
[1] = cited from earlier work
[2] = in vivo

Molecule | water solubility (1 part of drug in the number of parts of water) ([1]; water) | other results
CC[C@H]1OC(=O)[C@H](C)[C@@H](O[C@H]2C[C@@](C)(OC)[C@@H](O)[C@H](C)O2)[C@H](C)[C@@H](O[C@@H]2O[C@H](C)C[C@H](N(C)C)[C@H]2O)[C@](C)(OC)C[C@@H](C)C(=O)[C@H](C)[C@@H](O)[C@]1(C)O [clarithromycin] | – | water solubility (1 part of drug in the number of parts of water) ([1]; 1 part drug in x parts water, a higher number is a lower solubility): ~1,000 parts of water; solubility in the stomach ([1]; pH 1.2): very soluble; solubility in the upper region of the small intestine ([1]; pH 5.0): fairly soluble; solubility in the lower intestine ([1]; pH 6 to 8): solubility decreases
CC[C@H]1OC(=O)[C@H](C)[C@@H](O[C@H]2C[C@@](C)(OC)[C@@H](O)[C@H](C)O2)[C@H](C)[C@@H](O[C@@H]2O[C@H](C)C[C@H](N(C)C)[C@H]2O)[C@](C)(O)C[C@@H](C)C(=O)[C@H](C)[C@@H](O)[C@]1(C)O [erythromycin] | 1,000 parts of water | reproducibly bioavailable controlled release formulations [2]: not possible
CC1Cc2ccccc2N1NC(=O)c1ccc(Cl)c(S(N)(=O)=O)c1 (stereo not drawn) [indapamide] | more than 10,000 parts of water | –
CO[C@@H]1[C@@H](O[C@@H]2O[C@H](C)[C@@H](O[C@H]3C[C@@](C)(O)[C@@H](OC(=O)CC(C)C)[C@H](C)O3)[C@H](N(C)C)[C@H]2O)[C@@H](CC=O)C[C@@H](C)[C@@H](O)/C=C/C=C/C[C@@H](C)OC(=O)C[C@H]1OC(C)=O [josamycin] | 1,000-10,000 parts of water | –
Cc1ncc([N+](=O)[O-])n1CCO [metronidazole] | 100-1,000 parts of water | –
CCC(=O)O[C@@H]1CC(=O)O[C@H](C)C/C=C/C=C/[C@H](O)[C@H](C)C[C@H](CC=O)[C@H](O[C@@H]2O[C@H](C)[C@@H](O[C@H]3C[C@@](C)(O)[C@@H](OC(=O)CC)[C@H](C)O3)[C@H](N(C)C)[C@H]2O)[C@H]1OC [midecamycin] | – | water solubility in words ([1]; water): very slightly soluble in water
CC[C@H]1OC(=O)C[C@@H](O)[C@H](C)[C@@H](O[C@@H]2O[C@H](C)[C@@H](O[C@H]3C[C@@](C)(O)[C@@H](O)[C@H](C)O3)[C@H](N(C)C)[C@H]2O)[C@@H](CC=O)C[C@@H](C)C(=O)/C=C/C(C)=C/[C@@H]1CO[C@@H]1O[C@H](C)[C@@H](O)[C@@H](OC)[C@H]1OC [tylosin] | 100-1,000 parts of water | –
kitasamycin | 1,000-10,000 parts of water | –
